Test results from paper PMC6105673 (Nature Communications, 2018).
*: point of attachment. Biotin = O=C1N[C@H]2[C@H](CS[C@H]2CCCCC(=O)*)N1

Key:
HIS6-PHD2 (181–426) [1] = experiment: Steady-state pull-down of purified HIS6-PHD2 with biotinylated HIF-2α peptides; type: binding; settings: peptides (523–542), purified HIS6-PHD2 (181–426), with 1 mM MnCl2 and 1 mM NOG, 2 h at 4 °C
Text: To first test this hypothesis, we performed steady-state pull-down experiments with HIF-2α peptides (523–542) and purified HIS6-PHD2 (181–426). To stabilize the interaction between enzyme and substrate, it was necessary to include MnCl2 and N-oxalylglycine (NOG) in the binding buffer. Mn^2+ and NOG substitute for Fe^2+ and αKG, respectively, which stabilizes the HIF-2α-PHD2 interaction while preventing enzymatic turnover. A similar strategy was employed during co-crystallization of HIF-1α peptide with PHD2[43]. We observed that […] tested HIF-2α mutations result in decreased affinity for PHD2 (Supplementary Figure 6a). […] Next, we co-transfected HEK293a cells with 3xFLAG-HIF-2α ODD and HA-PHD2 constructs. […] The increased binding of the M535I mutant to PHD2 was not observed in this experiment. One important caveat is that the HIF-2α ODD constructs contain both the P405 and P531 sites. Thus, the residual PHD2 binding observed among HIF-2α mutants may partially be driven by the P405 site, which may mask differential PHD2 binding among the HIF-2α mutant ODD constructs.
5 μg of biotinylated HIF-2α peptide (WT or mutant) was immobilized on streptavidin agarose beads and incubated with a […] solution of purified HIS6-PHD2 (181–426) in 50 mM Tris-HCl pH 7.5, 0.005% (v/v) Tween-20 buffer supplemented with or without 1 mM MnCl2 and 1 mM NOG, for 2 h at 4 °C. Beads were washed 2x with the same buffer. Biotinylated peptide was pulled down via streptavidin agarose beads and protein was eluted by boiling beads in sample buffer. Protein levels of HIS6-PHD2 were determined by western blotting. Uncropped western blots are provided in Supplementary Figure 8.
Supplementary Figure 6. HIF-2α mutations disrupt PHD2 binding. (A) Biotinylated HIF-2α peptides (523-542, except where noted) were immobilized on streptavidin- agarose beads and incubated with purified HIS6-PHD2 (181-426) in the presence or absence of 1 mM MnCl2 and 1 mM N-oxalylglycine (NOG).
Streptavidin beads were pulled down (PD) and levels of HIS6-tagged PHD2 were visualized via immmunoblotting (IB). […]

HIS6-PHD2 (181–426) [2] = experiment: In vitro hydroxylation assay (HIS6-PHD2 treatment, then IVTT pVHL pull-down); type: biochemical; settings: unmodified biotinylated peptides, 15 μg/mL HIS6-PHD2 (181–426), 1 h room temperature, then IVTT HA-VHL30 under stringent buffer
Procedure: Considering that prolyl hydroxylation is indispensable for HIF-2α binding to pVHL, we next examined the notion that the A530V mutation negatively influences hydroxylation of HIF-2α via PHD2, which would attenuate HIF-2α A530V binding affinity for pVHL. We conducted an in vitro hydroxylation assay utilizing unmodified peptides (amino acids 523–542) incubated with purified HIS6-PHD2 (catalytic core, amino acids 181–426).
Fig. 5 A subset of class 1 mutations specifically disrupts PHD2-mediated hydroxylation. a, b Biotinylated HIF-2α peptides (residues 523–542) were immobilized on streptavidin- agarose beads and incubated with HIS6-PHD2 for 1 h at room temperature prior to incubation with in vitro transcribed and translated (IVTT) pVHL. Streptavidin beads were pulled down (PD) and levels of HA-tagged pVHL were visualized via immmunoblotting (IB). c HEK293a cells were co-transfected with FLAG-VHL and HA-HIF-2α constructs. FLAG was immunoprecipitated (IP) and levels of HA-tagged HIF-2α were visualized via immunoblotting (IB). * denotes uncharacterized band
The in vitro pVHL-HIF-2α hydroxylation assay was performed according to a previously published protocol. 5 μg of biotinylated HIF-2α peptide was immobilized on streptavidin-agarose beads. Subsequently, peptides were incubated with 15 μg/mL HIS6-PHD2 (181–426) in 500 μL of 40 mM HEPES pH 7.4, 80 mM KCl, 5 mM a-ketoglutarate, 2 mM ascorbic acid, 100 μM FeCl2 tetrahydrate solution at room temperature for 1 h. FeCl2 was stored under anoxic conditions to prevent oxidation. Following hydroxylation, beads were washed 5x with EBC buffer and peptides were incubated with IVTT HA-VHL30 under the stringent buffer conditions described above.

[3] = biological target: T1, HIS6-PHD2 (catalytic core, amino acids 181–426) (UniProt Q9GZT9 181-426); experiment: pull-down; biotinylated unmodified peptide on streptavidin agarose, purified HIS6-PHD2 (181–426), 50 mM Tris-HCl pH 7.5, 0.005% Tween-20 with 1 mM MnCl2 and 1 mM NOG, 2 h at 4 °C; anti-HIS blot; settings: both partners purified
T1 construct: prolyl hydroxylase domain containing enzyme 2 (PHD2, encoded by EGLN1), catalytic core, residues 181-426; plasmid pET-46 HIS6-PHD2; also called purified HIS6-PHD2 (181–426); source: E. coli BL21(DE3), purified (nickel sepharose, SEC)
T1 sequence (Q9GZT9 181-426): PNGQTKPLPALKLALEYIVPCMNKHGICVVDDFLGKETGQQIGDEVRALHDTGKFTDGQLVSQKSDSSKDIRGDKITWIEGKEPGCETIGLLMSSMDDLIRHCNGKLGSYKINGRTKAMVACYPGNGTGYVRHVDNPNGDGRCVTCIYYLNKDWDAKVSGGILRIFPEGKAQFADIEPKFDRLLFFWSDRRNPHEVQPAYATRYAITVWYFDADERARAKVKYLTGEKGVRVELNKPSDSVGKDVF

Row | binding result [3] | Molecule | affinity for PHD2 in steady-state pull-down (immunoblot, in words) (HIS6-PHD2 (181–426) [1]) | binding to pVHL following HIS6-PHD2 treatment (immunoblot, in words) (HIS6-PHD2 (181–426) [2])
1 |  | Bio-HIF-2α(M535I): unmodified HIF-2α peptide (523–542) with M535I mutation (Biotin-ELDLETLAPYIPIDGEDFQL-NH2; SMILES CC[C@H](C)[C@H](NC(=O)[C@@H]1CCCN1C(=O)[C@@H](NC(=O)[C@H](Cc1ccc(O)cc1)NC(=O)[C@@H]1CCCN1C(=O)[C@H](C)NC(=O)[C@H](CC(C)C)NC(=O)[C@@H](NC(=O)[C@H](CCC(=O)O)NC(=O)[C@H](CC(C)C)NC(=O)[C@H](CC(=O)O)NC(=O)[C@H](CC(C)C)NC(=O)[C@H](CCC(=O)O)NC(=O)CCCC[C@@H]1SC[C@@H]2NC(=O)N[C@@H]21)[C@@H](C)O)[C@@H](C)CC)C(=O)N[C@@H](CC(=O)O)C(=O)NCC(=O)N[C@@H](CCC(=O)O)C(=O)N[C@@H](CC(=O)O)C(=O)N[C@@H](Cc1ccccc1)C(=O)N[C@@H](CCC(N)=O)C(=O)N[C@@H](CC(C)C)C(N)=O) | not as deleterious | still retained affinity for pVHL
2 | binds | Biotin-ELDLETLAPYIPIDGEDFQL-NH2 (peptide, UniProt Q99814 523-542, looked up, SMILES CC[C@H](C)[C@H](NC(=O)[C@@H]1CCCN1C(=O)[C@@H](NC(=O)[C@H](Cc1ccc(O)cc1)NC(=O)[C@@H]1CCCN1C(=O)[C@H](C)NC(=O)[C@H](CC(C)C)NC(=O)[C@@H](NC(=O)[C@H](CCC(=O)O)NC(=O)[C@H](CC(C)C)NC(=O)[C@H](CC(=O)O)NC(=O)[C@H](CC(C)C)NC(=O)[C@H](CCC(=O)O)NC(=O)CCCC[C@@H]1SC[C@@H]2NC(=O)N[C@@H]21)[C@@H](C)O)[C@@H](C)CC)C(=O)N[C@@H](CC(=O)O)C(=O)NCC(=O)N[C@@H](CCC(=O)O)C(=O)N[C@@H](CC(=O)O)C(=O)N[C@@H](Cc1ccccc1)C(=O)N[C@@H](CCC(N)=O)C(=O)N[C@@H](CC(C)C)C(N)=O, Used for the pull-down of HIS6-PHD2; also called M535I class 2 mutant; source: synthetic peptide (Genscript)) [HIF-2α M535I peptide (523-542), unmodified] |  | 
3 | binds | Biotin-ELDLETLAPYIPMDGEDFQL-NH2 (SMILES CC[C@H](C)[C@H](NC(=O)[C@H](Cc1ccc(O)cc1)NC(=O)[C@@H]1CCCN1C(=O)[C@H](C)NC(=O)[C@H](CC(C)C)NC(=O)[C@@H](NC(=O)[C@H](CCC(=O)O)NC(=O)[C@H](CC(C)C)NC(=O)[C@H](CC(=O)O)NC(=O)[C@H](CC(C)C)NC(=O)[C@H](CCC(=O)O)NC(=O)CCCC[C@@H]1SC[C@@H]2NC(=O)N[C@@H]21)[C@@H](C)O)C(=O)N1CCC[C@H]1C(=O)N[C@@H](CCSC)C(=O)N[C@@H](CC(=O)O)C(=O)NCC(=O)N[C@@H](CCC(=O)O)C(=O)N[C@@H](CC(=O)O)C(=O)N[C@@H](Cc1ccccc1)C(=O)N[C@@H](CCC(N)=O)C(=O)N[C@@H](CC(C)C)C(N)=O, Used for the pull-down of HIS6-PHD2; source: synthetic peptide (Genscript)) [HIF-2α WT peptide (523-542), unmodified] |  | 
